How the values were obtained:
[1] = molecular target: T1, human JAK1 (a.a. 837-1142) (Homo sapiens, UniProt P23458); assay: In vitro JAK kinase assay (HTRF), JAK1; format: biochemical; conditions: 1 mM ATP
T1 construct: human JAK1 (a.a. 837-1142); His tag (N); made in house; host or cells: insect cells (baculovirus)
Protocol: Compounds herein were tested for inhibitory activity of JAK targets according to the following in vitro assay described in Park et al., Analytical Biochemistry 1999, 269, 94-104. The catalytic domains of human JAK1 (a.a. 837-1142), JAK2 (a.a. 828-1132) and JAK3 (a.a. 781-1124) with an N-terminal His tag were expressed using baculovirus in insect cells and purified. The catalytic activity of JAK1, JAK2 or JAK3 was assayed by measuring the phosphorylation of a biotinylated peptide. The phosphorylated peptide was detected by homogenous time resolved fluorescence (HTRF). […] Reactions were carried out at room temperature for 1 hour and then stopped with 20 μL 45 mM EDTA, 300 nM SA-APC, 6 nM Eu-Py20 in assay buffer (Perkin Elmer, Boston, Mass.). Binding to the Europium labeled antibody took place for 40 minutes and HTRF signal was measured on a Fusion plate reader (Perkin Elmer, Boston, Mass.).

[2] = molecular target: T2, human JAK2 (a.a. 828-1132) (Homo sapiens, UniProt O60674); assay: In vitro JAK kinase assay (HTRF), JAK2; format: biochemical; conditions: IC50 ratio, selectivity for JAK1 over JAK2, 1 mM ATP
T2 construct: JAK2 (a.a. 828-1132); His tag (N); made in house; host or cells: insect cells (baculovirus)
Protocol: Compounds herein were tested for inhibitory activity of JAK targets according to the following in vitro assay described in Park et al., Analytical Biochemistry 1999, 269, 94-104. The catalytic domains of human JAK1 (a.a. 837-1142), JAK2 (a.a. 828-1132) and JAK3 (a.a. 781-1124) with an N-terminal His tag were expressed using baculovirus in insect cells and purified. The catalytic activity of JAK1, JAK2 or JAK3 was assayed by measuring the phosphorylation of a biotinylated peptide. The phosphorylated peptide was detected by homogenous time resolved fluorescence (HTRF). […] Reactions were carried out at room temperature for 1 hour and then stopped with 20 μL 45 mM EDTA, 300 nM SA-APC, 6 nM Eu-Py20 in assay buffer (Perkin Elmer, Boston, Mass.). Binding to the Europium labeled antibody took place for 40 minutes and HTRF signal was measured on a Fusion plate reader (Perkin Elmer, Boston, Mass.). See Table 2 for data for compounds of the examples as tested by the assay of Example A at 1 mM ATP.

T1 sequence (P23458 849-1154): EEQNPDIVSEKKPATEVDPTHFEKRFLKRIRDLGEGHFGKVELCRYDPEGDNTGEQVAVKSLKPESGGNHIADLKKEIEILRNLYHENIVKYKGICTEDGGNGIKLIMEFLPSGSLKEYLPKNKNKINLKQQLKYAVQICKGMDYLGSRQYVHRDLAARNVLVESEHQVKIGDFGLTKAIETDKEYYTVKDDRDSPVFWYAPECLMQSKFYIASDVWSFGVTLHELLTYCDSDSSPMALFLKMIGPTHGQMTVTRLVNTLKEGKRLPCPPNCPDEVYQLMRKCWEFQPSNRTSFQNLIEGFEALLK
T2 sequence (O60674 828-1132): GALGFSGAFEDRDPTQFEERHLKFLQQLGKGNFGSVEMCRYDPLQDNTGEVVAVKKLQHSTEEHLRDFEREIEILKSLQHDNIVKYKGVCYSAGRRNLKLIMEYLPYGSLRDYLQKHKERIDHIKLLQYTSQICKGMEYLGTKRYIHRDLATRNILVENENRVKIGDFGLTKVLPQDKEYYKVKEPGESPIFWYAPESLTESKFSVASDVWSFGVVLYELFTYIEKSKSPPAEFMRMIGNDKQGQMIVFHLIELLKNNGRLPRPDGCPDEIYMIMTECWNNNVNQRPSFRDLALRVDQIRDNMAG

IC50 [1] | JAK2/JAK1 [2] | SMILES
< 10 nM | >10 | N#CCC(C1CCN(c2cccc(Cl)n2)C1)n1cc(-c2ncnc3[nH]ccc23)cn1 (single isomer, unassigned) [Example 1, 3-[1-(6-chloropyridin-2-yl)pyrrolidin-3-yl]-3-[4-(7H-pyrrolo[2,3-d]pyrimidin-4-yl)-1H-pyrazol-1-yl]propanenitrile]
< 10 nM | >10 | N#CCC(C1CCN(c2nc3cccnc3o2)C1)n1cc(-c2ncnc3[nH]ccc23)cn1 (single isomer, unassigned) [Example 2, 3-(1-[1,3]oxazolo[5,4-b]pyridin-2-ylpyrrolidin-3-yl)-3-[4-(7H-pyrrolo[2,3-d]pyrimidin-4-yl)-1H-pyrazol-1-yl]propanenitrile]
< 10 nM | >10 | N#CCC(CN1CCN(C(=O)c2ccc(C#N)cc2F)CC1)n1cc(-c2ncnc3[nH]ccc23)cn1 (single isomer, unassigned) [Example 3, 4-[(4-{3-cyano-2-[4-(7H-pyrrolo[2,3-d]pyrimidin-4-yl)-1H-pyrazol-1-yl]propyl}piperazin-1-yl)carbonyl]-3-fluorobenzonitrile]
< 10 nM | >10 | N#CCC(CN1CCN(C(=O)c2ccc(C#N)cc2F)CC1)n1ccc(-c2ncnc3[nH]ccc23)c1 (single isomer, unassigned) [Example 4, 4-[(4-{3-cyano-2-[3-(7H-pyrrolo[2,3-d]pyrimidin-4-yl)-1H-pyrrol-1-yl]propyl}piperazin-1-yl)carbonyl]-3-fluorobenzonitrile]
< 10 nM | >10 | N#CCC1(n2cc(-c3ncnc4[nH]ccc34)cn2)CN(C2CCN(C(=O)c3ccnc(C(F)(F)F)c3F)CC2)C1 [Example 5, {1-{1-[3-Fluoro-2-(trifluoromethyl)isonicotinoyl]piperidin-4-yl}-3-[4-(7H-pyrrolo[2,3-d]pyrimidin-4-yl)-1H-pyrazol-1-yl]azetidin-3-yl}acetonitrile]
< 10 nM | >10 | N#CCC1(n2cc(-c3ncnc4[nH]ccc34)cn2)CN(C2CCN(C(=O)Nc3ccc(F)cc3C(F)(F)F)CC2)C1 [Example 6, 4-{3-(Cyanomethyl)-3-[4-(7H-pyrrolo[2,3-d]pyrimidin-4-yl)-1H-pyrazol-1-yl]azetidin-1-yl}-N-[4-fluoro-2-(trifluoromethyl)phenyl]piperidine-1-carboxamide]
< 10 nM | >10 | N#CCC1(n2cc(-c3ncnc4[nH]ccc34)cn2)CN(C2CCN(C(=O)c3ccnc(C(F)(F)F)n3)CC2)C1 [Example 7, [3-[4-(7H-pyrrolo[2,3-d]pyrimidin-4-yl)-1H-pyrazol-1-yl]-1-(1-{[2-(trifluoromethyl)pyrimidin-4-yl]carbonyl}piperidin-4-yl)azetidin-3-yl]acetonitrile]
< 10 nM | >10 | N#CC[C@]1(n2cc(-c3ncnc4[nH]ccc34)cn2)C[C@H](N2CCN(C(=O)c3ccnc(C(F)(F)F)n3)CC2)C1 [Example 8, [trans-1-[4-(7H-pyrrolo[2,3-d]pyrimidin-4-yl)-1H-pyrazol-1-yl]-3-(4-{[2-(trifluoromethyl)pyrimidin-4-yl]carbonyl}piperazin-1-yl)cyclobutyl]acetonitrile]
< 10 nM | >10 | N#CC[C@]1(n2cc(-c3ncnc4[nH]ccc34)cn2)C[C@H](N2CCC(Oc3cc(CN4CC(O)C4)cc(C(F)(F)F)n3)CC2)C1 [Example 9, {trans-3-(4-{[4-[(3-hydroxyazetidin-1-yl)methyl]-6-(trifluoromethyl)pyridin-2-yl]oxy}piperidin-1-yl)-1-[4-(7H-pyrrolo[2,3-d]pyrimidin-4-yl)-1H-pyrazol-1-yl]cyclobutyl}acetonitrile]
< 10 nM | >10 | N#CC[C@]1(n2cc(-c3ncnc4[nH]ccc34)cn2)C[C@H](N2CCC(Oc3cc(CN4CCC[C@H]4CO)cc(C(F)(F)F)n3)CC2)C1 [Example 10, {trans-3-(4-{[4-{[(2S)-2-(hydroxymethyl)pyrrolidin-1-yl]methyl}-6-(trifluoromethyl)pyridin-2-yl]oxy}piperidin-1-yl)-1-[4-(7H-pyrrolo[2,3-d]pyrimidin-4-yl)-1H-pyrazol-1-yl]cyclobutyl}acetonitrile]
< 10 nM | >10 | N#CC[C@]1(n2cc(-c3ncnc4[nH]ccc34)cn2)C[C@H](N2CCC(Oc3cc(CN4CCC[C@@H]4CO)cc(C(F)(F)F)n3)CC2)C1 [Example 11, {trans-3-(4-{[4-{[(2R)-2-(hydroxymethyl)pyrrolidin-1-yl]methyl}-6-(trifluoromethyl)pyridin-2-yl]oxy}piperidin-1-yl)-1-[4-(7H-pyrrolo[2,3-d]pyrimidin-4-yl)-1H-pyrazol-1-yl]cyclobutyl}acetonitrile]
< 10 nM | >10 | C[C@H](NC(=O)c1cc(F)c(N2CC(CC#N)(n3cc(-c4ncnc5[nH]ccc45)cn3)C2)cc1F)C(F)(F)F [Example 14, 4-{3-(Cyanomethyl)-3-[4-(7H-pyrrolo[2,3-d]pyrimidin-4-yl)-1H-pyrazol-1-yl]azetidin-1-yl}-2,5-difluoro-N-[(1S)-2,2,2-trifluoro-1-methylethyl]benzamide]
< 10 nM | >10 | N#CCC1(n2cc(-c3ncnc4[nH]ccc34)cn2)CN([C@H]2CC[C@@H](Oc3cc(CCO)nc(C(F)(F)F)n3)CC2)C1 [Example 16, {1-(cis-4-{[6-(2-hydroxyethyl)-2-(trifluoromethyl)pyrimidin-4-yl]oxy}cyclohexyl)-3-[4-(7H-pyrrolo[2,3-d]pyrimidin-4-yl)-1H-pyrazol-1-yl]azetidin-3-yl}acetonitrile]
< 10 nM | >10 | CCNCc1cc(O[C@H]2CC[C@@H](N3CC(CC#N)(n4cc(-c5ncnc6[nH]ccc56)cn4)C3)CC2)nc(C(F)(F)F)c1 [Example 17, {1-(cis-4-{[4-[(ethylamino)methyl]-6-(trifluoromethyl)pyridin-2-yl]oxy}cyclohexyl)-3-[4-(7H-pyrrolo[2,3-d]pyrimidin-4-yl)-1H-pyrazol-1-yl]azetidin-3-yl}acetonitrile]
< 10 nM | >10 | CC(C)(O)c1cc(O[C@H]2CC[C@@H](N3CC(CC#N)(n4cc(-c5ncnc6[nH]ccc56)cn4)C3)CC2)nc(C(F)(F)F)c1 [Example 18, {1-(cis-4-{[4-(1-hydroxy-1-methylethyl)-6-(trifluoromethyl)pyridin-2-yl]oxy}cyclohexyl)-3-[4-(7H-pyrrolo[2,3-d]pyrimidin-4-yl)-1H-pyrazol-1-yl]azetidin-3-yl}acetonitrile]
< 10 nM | >10 | N#CCC1(n2cc(-c3ncnc4[nH]ccc34)cn2)CN([C@H]2CC[C@@H](Oc3cc(CN4CC[C@@H](O)C4)cc(C(F)(F)F)n3)CC2)C1 [Example 19, {1-(cis-4-{[4-{[(3R)-3-hydroxypyrrolidin-1-yl]methyl}-6-(trifluoromethyl)pyridin-2-yl]oxy}cyclohexyl)-3-[4-(7H-pyrrolo[2,3-d]pyrimidin-4-yl)-1H-pyrazol-1-yl]azetidin-3-yl}acetonitrile]
< 10 nM | >10 | N#CCC1(n2cc(-c3ncnc4[nH]ccc34)cn2)CN([C@H]2CC[C@@H](Oc3cc(CN4CC[C@H](O)C4)cc(C(F)(F)F)n3)CC2)C1 [Example 20, {1-(cis-4-{[4-{[(3S)-3-hydroxypyrrolidin-1-yl]methyl}-6-(trifluoromethyl)pyridin-2-yl]oxy}cyclohexyl)-3-[4-(7H-pyrrolo[2,3-d]pyrimidin-4-yl)-1H-pyrazol-1-yl]azetidin-3-yl}acetonitrile]
< 10 nM | >10 | C[C@@H](CO)NCc1cc(OC2CCN([C@H]3C[C@](CC#N)(n4cc(-c5ncnc6[nH]ccc56)cn4)C3)CC2)nc(C(F)(F)F)c1 [Example 21, {trans-3-(4-{[4-({[(1S)-2-hydroxy-1-methylethyl]amino}methyl)-6-(trifluoromethyl)pyridin-2-yl]oxy}piperidin-1-yl)-1-[4-(7H-pyrrolo[2,3-d]pyrimidin-4-yl)-1H-pyrazol-1-yl]cyclobutyl}acetonitrile]
< 10 nM | >10 | C[C@@H](O)CNCc1cc(OC2CCN([C@H]3C[C@](CC#N)(n4cc(-c5ncnc6[nH]ccc56)cn4)C3)CC2)nc(C(F)(F)F)c1 [Example 22, {trans-3-(4-{[4-({[(2R)-2-hydroxypropyl]amino}methyl)-6-(trifluoromethyl)pyridin-2-yl]oxy}piperidin-1-yl)-1-[4-(7H-pyrrolo[2,3-d]pyrimidin-4-yl)-1H-pyrazol-1-yl]cyclobutyl}acetonitrile]

Reference: patent publication US20220378791A1, “JAK1 INHIBITORS FOR THE TREATMENT OF MYELODYSPLASTIC SYNDROMES” (Incyte Corporation, priority 2014, published 2022)
